Source: patent publication US20240047019A1, “MODEL-FREE TIME-INVARIANT EVALUATION OF TRANSPORT AND EFFICACY OF CHEMICALS AND DRUGS” (Seqvera Ltd. Oy, priority 2022, published 2024)
Like-named read-outs stand apart in the source and are kept apart here. Blank lines part the entries; values can stand above or below the molecule they belong to.

Columns and labels:
[1] = system: L-type Ca^2+ current (ICa); test: calcium current (ICa) changes in ventricular myocytes with NCX inhibitor; type: cell-based, canine
Description: In this example the data from publication by Oravecz et.al. was used, where authors have attempted to clarify the underlying mechanism of the limited inotropic action of selective sodium-calcium exchange (NCX) inhibition by a novel inhibitor molecule (ORM-10962) on canine ventricular myocytes. […] The forward mode operation of NCX is considered as the main route of Ca^2+ removal balancing the Ca^2+influx generated by the L-type Ca^2+ current (ICa) and the reverse mode NCX activity. […] These experimental data have been analyzed in the present invention. […] In order to perform time convolution directly, the concentration of ORM-10962 should have been known in the target compartment, but here only the effect size (current measured) has been reported.

[2] = system: L-type Ca^2+ current (ICa); conditions: steady-state conditions; cited from earlier work
[3] = caffeine transport in membrane-separated chip, control tests (bare membrane); type: in vitro ADME; conditions: 0.25 mg/mL
Method: In this example data of caffeine transport measurements disclosed in publication are analyzed with a new method. […] The membrane had 0.4 micrometer pore size and was made of polyester track etched (PETE) insert, which was used bare (control tests) and with a double layer of cells (actual tests): human umbilical vein endothelial cells (HUVECs) and BeWo cells (derived from a human choriocarcinoma) to represent the endothelium in the fetal interface and the epithelium in the maternal interface. The mean data used are from three independent experiments.

[4] = system: placental barrier (HUVECs and BeWo cells); test: caffeine transport in placenta-on-a-chip, actual tests (double cells layer); type: in vitro ADME, human; conditions: 0.25 mg/mL
clinical = conditions: human, in vivo
Description: The method used in publication relies on fractional order derivatives with a multi-compartmental model using Laplace transform, which is not a common operation a lab technician usually able to perform. […] The resulting simplified equation for time changes of the concentration in the blood plasma (=the target compartment in the terminology of the recent invention), designated as c2(t) in [6], was expressed with six unknown parameters (d, k02, k21, α1, α2 and the lag time) as:
Clinical data of Popovic et al. have been used representing evaluation of diclofenac pharmacokinetics in a small number of healthy adults during a bioequivalence trial. In the spirit of the present invention, the data from were taken as cumulative concentration of diclofenac, averaged for all 12 patients. Here the initial mass of the drug was known of 100 mg, and the instant volume of distribution (VOD-2) was directly quantifiable by diving this mass for the measured cumulative concentration analyzed (Table 2).

[5] = cited from earlier work; for Tested c2(t): 100 mg, mean of 12, cumulative
[6] = gentamicin elution from coated Ti-6Al-4V disks into 2 mL distilled water at 37° C.; type: physicochemical; conditions: for c2(t), gentamicin concentration in the target compartment: distilled water 37° C.; for Remained in the coating: of 1395 μg/disk
Method: In this example the most detailed in vitro testing conditions have been used. Disk of diameter 15.5 mm and thickness of 2 mm made of medical titanium Grade 5 (Ti-6Al-4V) alloy were uniformly coated with a mixture of 1395 μg/disk gentamicin palmitate and 3745 μg/disk palmitic acid in triplicate (9 disks=3 disks×3 repetitions).
Disks were placed into a glass tube filled with 2 mL distilled water at constant temperature 37° C. and aliquots of 0.050 mL were periodically extracted without refilling the remining volume. The concentration of gentamicin in these samples was measured in mg/L and based on this, the amount of gentamicin in the remaining solution was calculated. The procedure was repeated until 336 h have been accumulated, and the average of three measurements has been calculated, Table 5.
After 336 hours of measurements, totally 0.5 mL of liquid is removed and about 60 μg of the drug is taken off the system. This represents of 25% of the total liquid volume and about 23.5% of the total drug released from the disk. With unknown solubility from the beginning, it is difficult to say how this drug removal affects the solubility rate, diffusion rate (concentration gradient uneven) and about the release kinetics in general (besides just making a curve fitting). As liquid is being periodically removed, the VOD-2 in the target compartment is getting smaller from 2 mL to 1.5 mL (being not constant) and thus the concentration of gentamicin there (c2(t)) is affected too.
For the method of the present invention, exact VOD-1 for the source compartment has been first calculated. For the density of gentamicin palmitate of 1.5 g/cc and palmitic acid of 0.86 g/cc, taking into account the disk surface area of 188.69 mm^2, the expected dense coating thickness is about 28 μm at the beginning of the test, leading to the VOD-1 value (for the source compartment) of 5.285 mm^3. Since VOD-2 is not constant due to aliquots takeoffs, the coefficient of partition is not constant either and will change with time, approaching an equilibrium value (Leq).

[7] = least-squares fit in [6], slow release 100 mg tablet

Molecule: O=C(CN1CCC(O)CC1)Nc1ccc(Oc2ccc3c(c2)CCC(c2ccccc2)O3)nc1 (stereo not shown) [ORM-10962]
efficacy parameter LCa ([1]; ICa change per μM of the added drug): 42.123 nA/μM
characteristic time ([1]; calcium current in myocytes): 1.69 s
non-dimensional transport constant K ([1]; calcium current in myocytes): 104.5
reduction of ICa amplitude in the presence vs. absence of the inhibitor [2]: significantly greater

Molecule: Cn1c(=O)c2c(ncn2C)n(C)c1=O [caffeine]
Characteristic time τ [3]: 40 min
Transport constant K [3]: 162.77
kinetic parameter β [3]: 2.0-2.9
Coefficient of partition Leq ([3]; Control (no cells)): 5.61
Coefficient of partition Leq ([4]; Actual (double cells layer)): 35.5
Characteristic time τ ([4]; human): 27 min
Transport constant K ([4]; human): 6697.34
kinetic parameter β ([4]; human): 3.2-5.4

kinetic parameter β (clinical): > 1
Vd at 1 h (clinical; 100 mg): 522 L
Vd at 1.5 h (clinical; 100 mg): 56.1 L
Vd at 2 h (clinical; 100 mg): 21.2 L
Vd at 2.5 h (clinical; 100 mg): 13.7 L
Vd at 3 h (clinical; 100 mg): 10.5 L
Vd at 4 h (clinical; 100 mg): 8.97 L
Vd at 6 h (clinical; 100 mg): 8.11 L
Vd at 8 h (clinical; 100 mg): 7.78 L
Vd at 12 h (clinical; 100 mg): 7.75 L
Vd at 24 h (clinical; 100 mg): 7.69 L
Calculated c2(t) (clinical; 1 h): 0.141 mg/mL
Calculated c2(t) (clinical; 1.5 h): 1.216 mg/mL
Dr (generalized Deborah rate number) (clinical; 1.5 h): 644.65 ×10^6
kinetic parameter β (clinical; 1.5 h): 5.538
Calculated c2(t) (clinical; 2 h): 3.818 mg/mL
Dr (generalized Deborah rate number) (clinical; 2 h): 244.03 ×10^6
kinetic parameter β (clinical; 2 h): 4.884
Calculated c2(t) (clinical; 2.5 h): 6.832 mg/mL
Dr (generalized Deborah rate number) (clinical; 2.5 h): 124.66 ×10^6
kinetic parameter β (clinical; 2.5 h): 4.480
Calculated c2(t) (clinical; 3 h): 9.093 mg/mL
Dr (generalized Deborah rate number) (clinical; 3 h): 75.67 ×10^6
kinetic parameter β (clinical; 3 h): 4.256
Calculated c2(t) (clinical; 4 h): 11.349 mg/mL
Dr (generalized Deborah rate number) (clinical; 4 h): 37.46 ×10^6
kinetic parameter β (clinical; 4 h): 3.875
Calculated c2(t) (clinical; 6 h): 12.560 mg/mL
Dr (generalized Deborah rate number) (clinical; 6 h): 16.35 ×10^6
kinetic parameter β (clinical; 6 h): 3.388
Calculated c2(t) (clinical; 8 h): 12.846 mg/mL
Dr (generalized Deborah rate number) (clinical; 8 h): 10.07 ×10^6
kinetic parameter β (clinical; 8 h): 3.266
Calculated c2(t) (clinical; 12 h): 13.001 mg/mL
Dr (generalized Deborah rate number) (clinical; 12 h): 5.80 ×10^6
kinetic parameter β (clinical; 12 h): 3.471
Calculated c2(t) (clinical; 24 h): 13.073 mg/mL
Dr (generalized Deborah rate number) (clinical; 24 h): 3.07 ×10^6
kinetic parameter β (clinical; 24 h): 3.388
Molecule: O=C(O)Cc1ccccc1Nc1c(Cl)cccc1Cl [diclofenac]
Tested c2(t) ([5]; 1.0 h): 0.192 mg/mL
Tested c2(t) ([5]; 1.5 h): 1.783 mg/mL
Tested c2(t) ([5]; 2.0 h): 4.725 mg/mL
Tested c2(t) ([5]; 2.5 h): 7.283 mg/mL
Tested c2(t) ([5]; 3 h): 9.500 mg/mL
Tested c2(t) ([5]; 4 h): 11.150 mg/mL
Tested c2(t) ([5]; 6 h): 12.333 mg/mL
Tested c2(t) ([5]; 8 h): 12.858 mg/mL
Tested c2(t) ([5]; 12 h): 12.900 mg/mL
Tested c2(t) ([5]; 24 h): 13.000 mg/mL
fitted parameter d of fractional compartmental model [5, 7]: 22.79±16.41
fitted parameter k02 of fractional compartmental model [5, 7]: 1.51±1.05

Sample gentamicin amount, Average ([6]; average of S1-S3, 1 h): 187.2 µg
Sample gentamicin amount, Average ([6]; average of S1-S3, 3 h): 221.2 µg
Sample gentamicin amount, Average ([6]; average of S1-S3, 6 h): 171.9 µg
Sample gentamicin amount, Average ([6]; average of S1-S3, 24 h): 191.1 µg
Sample gentamicin amount, Average ([6]; average of S1-S3, 48 h): 195.1 µg
Sample gentamicin amount, Average ([6]; average of S1-S3, 72 h): 189.4 µg
Sample gentamicin amount, Average ([6]; average of S1-S3, 96 h): 199.9 µg
Sample gentamicin amount, Average ([6]; average of S1-S3, 168 h): 241.0 µg
Sample gentamicin amount, Average ([6]; average of S1-S3, 264 h): 247.5 µg
Sample gentamicin amount, Average ([6]; average of S1-S3, 336 h): 255.3 µg
c2(t), gentamicin concentration in the target compartment ([6]; 1 h): 93.6 mg/L
c2(t), gentamicin concentration in the target compartment ([6]; 3 h): 113.4 mg/L
c2(t), gentamicin concentration in the target compartment ([6]; 6 h): 90.5 mg/L
c2(t), gentamicin concentration in the target compartment ([6]; 24 h): 103.3 mg/L
c2(t), gentamicin concentration in the target compartment ([6]; 48 h): 108.4 mg/L
c2(t), gentamicin concentration in the target compartment ([6]; 72 h): 108.3 mg/L
c2(t), gentamicin concentration in the target compartment ([6]; 96 h): 117.6 mg/L
c2(t), gentamicin concentration in the target compartment ([6]; 168 h): 146.1 mg/L
c2(t), gentamicin concentration in the target compartment ([6]; 264 h): 154.7 mg/L
c2(t), gentamicin concentration in the target compartment ([6]; 336 h): 164.7 mg/L
Remained in the coating ([6]; 1 h): 1207.8 µg
Remained in the coating ([6]; 3 h): 1173.8 µg
Remained in the coating ([6]; 6 h): 1223.1 µg
Remained in the coating ([6]; 24 h): 1203.9 µg
Remained in the coating ([6]; 48 h): 1199.9 µg
Remained in the coating ([6]; 72 h): 1205.6 µg
Remained in the coating ([6]; 96 h): 1195.1 µg
Remained in the coating ([6]; 168 h): 1154.0 µg
Remained in the coating ([6]; 264 h): 1147.5 µg
Remained in the coating ([6]; 336 h): 1139.7 µg
Molecule: gentamicin

Molecule: gentamicin palmitate
kinetic parameter β ([6]; not constant, FIG. 12): well below unity
